Data reported in patent publication US7250442B2, “Dihydroindol-2-one derivatives as steroid hormone nuclear receptor modulators” (Eli Lilly and Company, priority 2003, dated 2007).

What follows are compounds tested against T1, human MR (Homo sapiens, UniProt P08235) (assay: Mineralocorticoid Receptor Binding Assay ([3H]-aldosterone displacement)). Conditions: full length human MR expressed in Sf9 cells, 0.5 nM [3H]-aldosterone.
T1 construct: The full length human MR gene is cloned from a human kidney or human brain cDNA library; made in house; host or cells: Sf9 insect cells (baculovirus, pAcHLT transfer vector)
T1 sequence (P08235 1-984): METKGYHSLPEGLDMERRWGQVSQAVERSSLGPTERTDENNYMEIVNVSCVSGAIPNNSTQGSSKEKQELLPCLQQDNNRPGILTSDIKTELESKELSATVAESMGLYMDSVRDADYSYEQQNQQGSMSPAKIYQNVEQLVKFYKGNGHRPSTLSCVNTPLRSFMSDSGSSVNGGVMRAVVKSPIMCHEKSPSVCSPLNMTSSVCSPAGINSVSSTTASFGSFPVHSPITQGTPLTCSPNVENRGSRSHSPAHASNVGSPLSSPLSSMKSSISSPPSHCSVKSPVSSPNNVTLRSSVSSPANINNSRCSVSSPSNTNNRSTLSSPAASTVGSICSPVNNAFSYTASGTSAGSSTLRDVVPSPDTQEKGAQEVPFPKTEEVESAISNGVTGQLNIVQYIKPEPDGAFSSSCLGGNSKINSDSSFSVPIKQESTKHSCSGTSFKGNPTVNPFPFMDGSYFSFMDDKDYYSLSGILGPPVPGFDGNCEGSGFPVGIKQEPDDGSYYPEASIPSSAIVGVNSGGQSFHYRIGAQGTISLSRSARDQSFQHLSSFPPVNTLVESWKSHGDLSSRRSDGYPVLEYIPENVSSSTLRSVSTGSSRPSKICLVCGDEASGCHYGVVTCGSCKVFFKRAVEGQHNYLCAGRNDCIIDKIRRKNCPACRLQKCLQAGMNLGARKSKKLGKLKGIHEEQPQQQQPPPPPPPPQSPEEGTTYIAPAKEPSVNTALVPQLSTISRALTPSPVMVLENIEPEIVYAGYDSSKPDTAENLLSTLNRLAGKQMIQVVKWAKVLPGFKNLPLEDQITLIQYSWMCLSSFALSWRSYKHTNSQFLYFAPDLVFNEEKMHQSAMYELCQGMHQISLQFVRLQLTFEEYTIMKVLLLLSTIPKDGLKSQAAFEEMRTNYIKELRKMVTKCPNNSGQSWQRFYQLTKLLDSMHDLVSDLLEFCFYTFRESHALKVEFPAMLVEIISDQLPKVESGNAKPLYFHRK
Protocol: Mineralocorticoid Receptor Binding Assay:
The full length human MR gene is cloned from a human kidney or human brain cDNA library. Briefly, using synthetic oligonucleotide primers (Eli Lilly and Company, Indianapolis) directed to nucleotides 20-54 and 3700-3666 of the human MR, polymerase chain reaction (PCR) is performed under standard conditions using a human cDNA library. The PCR reaction is performed in a final volume of 50 μl containing about 1 μl of a 50× stock solution of polymerase; about 1 μl of a 50× stock solution of dNTP; about 5 μl of an appropriate PCR buffer; about 1 μl of each primer; about 5 μl of a H. kidney or H. brain cDNA library; and about 36 μl of water. The reaction is allowed to denature for about 30 seconds at 95 degrees Celsius, anneal for about 30 seconds at 55 degrees Celsius, and extend for about 5 minutes at 72 degrees Celsius, the sequence being repeated for a total of about 35 cycles. The desired PCR product (3.68 Kb) is confirmed by gel electrophoresis and subsequently cut from the gel and stored at about −20 degrees Celsius until extraction. To extract the cDNA product from the agarose gel, the QIAEX II Gel Extraction protocol (QIAGEN, Inc.) is employed according to the manufacturer's instructions. Following extraction, the MR cDNA is cloned into an appropriate cloning vector (Zero Blunt TOPO PCR Cloning Kit (Invitrogen, Inc.) and a pAcHLT-baculovirus transfer vector (B.D./Pharminogen), then expressed in SF9 insect cells, essentially according to manufacturer's instructions. Sf9 cells are grown at a scale where gram quantity cell pellets are obtained for subsequent use in the MR binding assay. Harvested cell pellets are lysed by repeated freeze-thaw cycles (about 4) in a suitable lysis buffer then centrifuged at about 1×10^3 G (with the supernatant being saved for future assays).
MR binding assays are performed in a final total volume of about 250 μl containing about 20-25 μg of protein and 0.5 nM of [^3H]-aldosterone plus varying concentrations of test compound or vehicle. The assay binding buffer consists of 30 mM sodium molybdate, 30 mM of TRIS-HCl, 5 mM sodium phosphate, 5 mM sodium pyrophosphate, and about 10% glycerol, pH=7.5.
Briefly, assays are prepared at RT in 96-well Falcon 3072 plates, each well containing 210 μl of binding buffer, 10 μl of [^3H]-aldosterone, 10 μl of test compound/vehicle, and 20 μl of the resuspended receptor protein extract. Incubations are carried out at 4 degrees Celsius with shaking for about 16 hours. 200 μl aliquots of each incubation are filtered onto Millipore HA 0.45 micron 96-well filter plates, pre-moistened with cold 30 mM TRIS-HCl. The filter plates are suctioned dry with vacuum and immediately washed 3× with cold 30 mM TRIS-HCl. The plates are then punched out and the amount of receptor-ligand complex is determined by liquid scintillation counting using 4 ml of Ready Protein Plus™ liquid scintillation cocktail.
IC50 values (defined as the concentration of test compound required to decrease [^3H]-aldosterone binding by 50%) are then determined. Ki values for each respective test compound can then be calculated by application of the Cheng-Prusoff equation as described in Cheng et al., Relationship Between The Inhibition Constant (Ki) and The Concentration of Inhibitor Which Causes 50% Inhibition (IC50) of an Enzymatic Reaction, Biochem. Pharmacol., 22: 3099-31088; (1973).

| Structure (SMILES) | Ki |
| --- | --- |
| COc1ccc(CN2C(=O)C(c3cc(C)c(O)c(C)c3)(c3cc(C)c(O)c(C)c3)c3ccccc32)cc1 [Example 1, 3,3-Bis-(4-hydroxy-3,5-dimethyl-phenyl)-1-(4-methoxy-benzyl)-1,3-dihydro-indol-2-one] | ≤ 500 nM |
| COC(=O)c1ccc(CN2C(=O)C(c3cc(C)c(O)c(C)c3)(c3cc(C)c(O)c(C)c3)c3ccccc32)cc1 [Example 3, 4-[3,3-Bis-(4-hydroxy-3,5-dimethyl-phenyl)-2-oxo-2,3-dihydro-indol-1-ylmethyl]-benzoic acid methyl ester] | ≤ 500 nM |
| Cc1cc(C2(c3cc(C)c(O)c(C)c3)C(=O)N(C)c3ccccc32)cc(C)c1O [Example 4, 3,3-Bis-(4-hydroxy-3,5-dimethyl-phenyl)-1-methyl-1,3-dihydro-indol-2-one] | ≤ 1000 nM |
| CCCN1C(=O)C(c2cc(C)c(O)c(C)c2)(c2cc(C)c(O)c(C)c2)c2ccccc21 [Example 5, 3,3-Bis-(4-hydroxy-3,5-dimethyl-phenyl)-1-propyl-1,3-dihydro-indol-2-one] | ≤ 500 nM |
| Cc1cc(C2(c3cc(C)c(O)c(C)c3)C(=O)N(CC3CCCCC3)c3ccccc32)cc(C)c1O [Example 6, 1-Cyclohexylmethyl-3,3-bis-(4-hydroxy-3,5-dimethyl-phenyl)-1,3-dihydro-indol-2-one] | ≤ 500 nM |
| Cc1cc(C2(c3cc(C)c(O)c(C)c3)C(=O)N(Cc3cccc(OC(F)(F)F)c3)c3ccccc32)cc(C)c1O [Example 8, 3,3-Bis-(4-hydroxy-3,5-dimethyl-phenyl)-1-(3-trifluoromethoxy-benzyl)-1,3-dihydro-indol-2-one] | ≤ 500 nM |
| Cc1cc(C2(c3cc(C)c(O)c(C)c3)C(=O)N(Cc3c(C)noc3C)c3ccccc32)cc(C)c1O [Example 9, 1-(3,5-Dimethyl-isoxazol-4-ylmethyl)-3,3-bis-(4-hydroxy-3,5-dimethyl-phenyl)-1,3-dihydro-indol-2-one] | ≤ 500 nM |
| Cc1cc(C2(c3cc(C)c(O)c(C)c3)C(=O)N(Cc3ccccc3Cl)c3ccccc32)cc(C)c1O [Example 11, 1-(2-Chloro-benzyl)-3,3-bis-(4-hydroxy-3,5-dimethyl-phenyl)-1,3-dihydro-indol-2-one] | ≤ 500 nM |
| Cc1cc(C2(c3ccc(O)c(C)c3)C(=O)N(Cc3ccccc3)c3ccccc32)ccc1O [Example 12, 1-Benzyl-3,3-bis-(4-hydroxy-3-methyl-phenyl)-1,3-dihydro-indol-2-one] | ≤ 500 nM |
| O=C1N(Cc2ccccc2)c2ccccc2C1(c1cc(Cl)c(O)c(Cl)c1)c1cc(Cl)c(O)c(Cl)c1 [Example 14, 1-Benzyl-3,3-bis-(3,5-dichloro-4-hydroxy-phenyl)-1,3-dihydro-indol-2-one] | ≤ 1000 nM |

Other lines, results leading:

| Ki | Structure (SMILES) |
| --- | --- |
| ≤ 500 nM | Cc1cc(C2(c3cc(C)c(O)c(C)c3)C(=O)N(Cc3ccccc3)c3ccc(Br)cc32)cc(C)c1O [Example 15, 1-Benzyl-5-bromo-3,3-bis-(4-hydroxy-3,5-dimethyl-phenyl)-1,3-dihydro-indol-2-one] |
| ≤ 500 nM | Cc1ccc2c(c1)C(c1cc(C)c(O)c(C)c1)(c1cc(C)c(O)c(C)c1)C(=O)N2Cc1ccccc1 [Example 17, 1-Benzyl-3,3-bis-(4-hydroxy-3,5-dimethyl-phenyl)-5-methyl-1,3-dihydro-indol-2-one] |
| ≤ 500 nM | Cc1cc(C2(c3cc(C)c(O)c(C)c3)C(=O)N(Cc3ccccc3Cl)c3ccc(Br)cc32)cc(C)c1O [Example 19, 5-Bromo-1-(2-chloro-benzyl)-3,3-bis-(4-hydroxy-3,5-dimethyl-phenyl)-1,3-dihydro-indol-2-one] |
| ≤ 500 nM | Cc1ccccc1CN1C(=O)C(c2cc(C)c(O)c(C)c2)(c2cc(C)c(O)c(C)c2)c2cc(Br)ccc21 [Example 20, 5-Bromo-3,3-bis-(4-hydroxy-3,5-dimethyl-phenyl)-1-(2-methyl-benzyl)-1,3-dihydro-indol-2-one] |
| ≤ 500 nM | Cc1ccc2c(c1)C(c1cc(C)c(O)c(C)c1)(c1cc(C)c(O)c(C)c1)C(=O)N2Cc1ccccc1C [Example 21, 3,3-Bis-(4-hydroxy-3,5-dimethyl-phenyl)-5-methyl-1-(2-methyl-benzyl)-1,3-dihydro-indol-2-one] |
| ≤ 500 nM | Cc1ccc2c(c1)C(c1cc(C)c(O)c(C)c1)(c1cc(C)c(O)c(C)c1)C(=O)N2Cc1ccccc1Cl [Example 22, 1-(2-Chloro-benzyl)-3,3-bis-(4-hydroxy-3,5-dimethyl-phenyl)-5-methyl-1,3-dihydro-indol-2-one] |
| ≤ 500 nM | Cc1ccc2c(c1)C(c1cc(C)c(O)c(C)c1)(c1cc(C)c(O)c(C)c1)C(=O)N2Cc1ccccc1C#N [Example 23, 2-[3,3-Bis-(4-hydroxy-3,5-dimethyl-phenyl)-5-methyl-2-oxo-2,3-dihydro-indol-1-ylmethyl]-benzonitrile] |
| ≤ 500 nM | Cc1cc(C2(c3cc(C)c(O)c(C)c3)C(=O)N(Cc3ccccc3Cl)c3c(C)cccc32)cc(C)c1O [Example 24, 1-(2-Chloro-benzyl)-3,3-bis-(4-hydroxy-3,5-dimethyl-phenyl)-7-methyl-1,3-dihydro-indol-2-one] |
| ≤ 500 nM | CCc1cccc2c1N(Cc1ccccc1Cl)C(=O)C2(c1cc(C)c(O)c(C)c1)c1cc(C)c(O)c(C)c1 [Example 25, 1-(2-Chloro-benzyl)-7-ethyl-3,3-bis-(4-hydroxy-3,5-dimethyl-phenyl)-1,3-dihydro-indol-2-one] |
| ≤ 500 nM | Cc1cc(C2(c3cc(C)c(O)c(C)c3)C(=O)N(Cc3ccccc3Cl)c3cccc(Cl)c32)cc(C)c1O [Example 26, 4-Chloro-1-(2-chloro-benzyl)-3,3-bis-(4-hydroxy-3,5-dimethyl-phenyl)-1,3-dihydro-indol-2-one] |
| ≤ 500 nM | Cc1cc(C2(c3cc(C)c(O)c(C)c3)C(=O)N(Cc3ccccc3Cl)c3ccccc32)cc(C)c1N (centres unmarked) [Example 35, 3-(4-Amino-3,5-dimethyl-phenyl)-1-(2-chloro-benzyl)-3-(4-hydroxy-3,5-dimethyl-phenyl)-1,3-dihydro-indol-2-one] |
| ≤ 500 nM | Cc1cc(C2(c3ccc(O)cc3)C(=O)N(Cc3ccccc3Cl)c3ccccc32)cc(C)c1O (centres unmarked) [Example 36, 1-(2-Chloro-benzyl)-3-(4-hydroxy-3,5-dimethyl-phenyl)-3-(4-hydroxy-phenyl)-1,3-dihydro-indol-2-one] |
| ≤ 500 nM | Cc1cc(C2(c3cc(C)c(O)c(C)c3)C(=O)N(Cc3ccc(F)cc3F)c3ccccc32)cc(C)c1O [Example 43, 1-(2,4-Difluoro-benzyl)-3,3-bis-(4-hydroxy-3,5-dimethyl-phenyl)-1,3-dihydro-indol-2-one] |
